Measured values from ChEMBL document CHEMBL1201862, “PubChem BioAssay data set” (2004).
The source made the active and inactive calls.

Assays:
Steroidogenic factor 1 = Steroidogenic factor 1 (Homo sapiens, UniProt Q13285); assay: Counterscreen for inverse agonists of the liver receptor homolog-1 (LRH-1; NR5A2): Luminescence-based cell-based high throughput dose response assay to identify inverse agonists of the Steroidogenic Factor 1 Nuclear Receptor (SF1; NR5A1).; type: functional
[1] = target: Nuclear receptor subfamily 5 group A member 2 (Homo sapiens, UniProt O00482); type: functional, cell-based;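 further: HEK293T cells transfected with LRH-1 and a StAR promoter luciferase reporter; potency for inhibitors that lower LRH-1 driven reporter light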
[2] = StAR promoter reporter inhibition counter-screen, dose response, counter-screen for LRH-1 inverse agonist project, cell-based, luminescence, luciferase reporter (AID 651969); type: functional
Beta-lactamase [3] = target: T1, Beta-lactamase (Pseudomonas aeruginosa, UniProt Q79MP6); assay: IMP-1 metallo-beta-lactamase inhibitors, dose response, selectivity assay for VIM-2 inhibitor project, biochemical, epi-absorbance (AID 1920)
Beta-lactamase [4] = target: Beta-lactamase (Salmonella choleraesuis (strain SC-B67), UniProt Q5J463); assay: Epi-absorbance-based counterscreen for selective VIM-2 inhibitors: dose response biochemical high throughput screening assay to identify inhibitors of TEM-1 serine-beta-lactamase.
Beta-lactamase [5] = target: T1, Beta-lactamase; assay: […] counterscreen for selective VIM-2 inhibitors: dose response biochemical high throughput screening assay to identify inhibitors of IMP-1 metallo-beta-lactamase.
[6] = target: T2, Endoribonuclease toxin MazF (Escherichia coli K-12, UniProt P0AE70); assay: fluorescent RNA oligo signal without MazF, dose response, counter-screen for MazEF activator project, biochemical, fluorescence, single-stranded RNase substrate (AID 588502); type: functional
T2 sequence (P0AE70 whole entry): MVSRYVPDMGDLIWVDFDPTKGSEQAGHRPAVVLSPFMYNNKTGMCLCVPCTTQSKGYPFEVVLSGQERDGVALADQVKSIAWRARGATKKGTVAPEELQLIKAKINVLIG

[7] = target: T2, Endoribonuclease toxin MazF; assay: MazF toxin RNase activators, dose response, biochemical, fluorescence, single-stranded RNA substrate, uHTS hits (AID 588481); type: functional
[8] = HepG2 cell cytotoxicity, dose response, cytotoxicity control, plate reader, cherry-pick, antagonist series (AID 743416); type: functional, cell-based
[9] = MC4R antagonists, dose response, counter-screen for LGR2 antagonist project, cell-based, plate reader, cherry pick (AID 743444); type: functional;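 further: transfected HEK 293 cells stimulated with alpha-MSH peptide; potency of inhibitors of the alpha-MSH evoked signal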
[10] = A549 cell cytotoxicity, dose response, cytotoxicity control, plate reader, cherry-pick, antagonist series (AID 743412); type: functional, cell-based
[11] = LGR2 antagonists, dose response, cell-based, HEK293, CRE-luciferase reporter, cherry pick, set 2 (AID 743343); type: functional;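 further: transfected cells were stimulated with diluted bursicon conditioned medium after compound addition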
HEK293 [12] = assay: inhibitors of LMP1-driven NF-kB reporter, dose response, cell-based, HEK293, luciferase, cherry-pick (AID 588343); type: functional; details: Homo sapiens
[13] = HEp-2 cell cytotoxicity, dose response, cytotoxicity control for RSV inhibitor project, HTS (AID 2410); type: functional; details: human respiratory syncytial virus
[14] = intracellular Trypanosoma cruzi inhibitors in host cells – cell-based, plate reader, cherry-pick samples, set 3, dose response (AID 651818); type: functional;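 further: compounds incubated with infected cells for about four days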
HEK293 [15] = assay: NOD1 signaling inhibitors, primary screen, cell-based, luminescence, uHTS (AID 1578); type: functional; details: Homo sapiens
HEK293 [16] = assay: cells; type: functional, cell-based; details: Homo sapiens
HEK293 [17] = assay: NOD2 signaling inhibitors in MDP-stimulated cells, cell-based, uHTS, luminescence (AID 2001); type: functional; details: Homo sapiens
HEK293 [18] = assay: cells; type: functional, cell-based; details: Homo sapiens; remark: listed apart in the source

T1 sequence (Q79MP6 whole entry): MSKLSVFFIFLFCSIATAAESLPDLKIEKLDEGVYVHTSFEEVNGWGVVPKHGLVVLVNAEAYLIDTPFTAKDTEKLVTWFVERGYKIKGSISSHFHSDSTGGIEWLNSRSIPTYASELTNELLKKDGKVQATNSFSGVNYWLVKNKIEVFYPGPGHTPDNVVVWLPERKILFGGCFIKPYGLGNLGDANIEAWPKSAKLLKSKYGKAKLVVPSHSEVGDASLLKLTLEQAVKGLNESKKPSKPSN
Chain of Nuclear receptor subfamily 5 group A member 2 (O00482 whole entry): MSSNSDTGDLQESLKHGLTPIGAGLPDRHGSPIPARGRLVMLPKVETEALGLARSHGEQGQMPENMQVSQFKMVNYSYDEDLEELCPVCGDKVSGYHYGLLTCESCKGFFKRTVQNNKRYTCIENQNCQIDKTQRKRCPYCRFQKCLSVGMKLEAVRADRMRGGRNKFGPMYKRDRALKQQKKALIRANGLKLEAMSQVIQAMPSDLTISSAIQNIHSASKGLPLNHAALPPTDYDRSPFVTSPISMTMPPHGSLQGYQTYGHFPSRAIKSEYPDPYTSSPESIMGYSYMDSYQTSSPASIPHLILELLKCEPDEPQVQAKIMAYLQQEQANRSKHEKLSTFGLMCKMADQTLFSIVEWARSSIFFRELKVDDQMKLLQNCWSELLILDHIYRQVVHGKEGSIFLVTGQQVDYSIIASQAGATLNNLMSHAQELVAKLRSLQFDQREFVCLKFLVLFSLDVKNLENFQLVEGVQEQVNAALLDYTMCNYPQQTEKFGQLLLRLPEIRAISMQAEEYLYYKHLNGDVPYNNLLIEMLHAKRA
Chain of Beta-lactamase (Salmonella choleraesuis (strain SC-B67), UniProt Q5J463) (Q5J463 whole entry): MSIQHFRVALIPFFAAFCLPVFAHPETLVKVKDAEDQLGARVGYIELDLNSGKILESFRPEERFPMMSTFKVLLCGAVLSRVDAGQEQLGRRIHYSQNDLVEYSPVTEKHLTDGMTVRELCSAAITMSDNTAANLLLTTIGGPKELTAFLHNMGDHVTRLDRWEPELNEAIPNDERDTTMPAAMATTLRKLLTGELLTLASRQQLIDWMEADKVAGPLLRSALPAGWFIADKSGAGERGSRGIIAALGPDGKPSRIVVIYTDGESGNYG
Chain of Steroidogenic factor 1 (Q13285 whole entry): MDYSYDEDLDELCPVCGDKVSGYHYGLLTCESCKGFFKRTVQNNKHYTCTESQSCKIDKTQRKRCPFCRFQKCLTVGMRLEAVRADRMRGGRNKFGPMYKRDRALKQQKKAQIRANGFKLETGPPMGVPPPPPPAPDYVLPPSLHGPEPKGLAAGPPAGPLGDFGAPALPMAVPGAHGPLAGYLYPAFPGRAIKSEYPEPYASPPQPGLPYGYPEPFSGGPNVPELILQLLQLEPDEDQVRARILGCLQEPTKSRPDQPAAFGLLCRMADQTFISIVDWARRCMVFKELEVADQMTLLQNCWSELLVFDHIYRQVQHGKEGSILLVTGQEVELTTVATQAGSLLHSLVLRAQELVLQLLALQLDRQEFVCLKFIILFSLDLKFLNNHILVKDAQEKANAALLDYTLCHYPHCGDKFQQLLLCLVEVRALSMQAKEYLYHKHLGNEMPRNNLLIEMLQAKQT

For `COc1ccc(NC(=O)CSc2nc(N)c(-c3ccccc3)c(O)n2)cc1`, the IC50 (Steroidogenic factor 1) was 2.36 µM (active), the IC50 [1] was 9.88 µM (active) and the IC50 [2] was 35.9 µM (inactive).
For `O=C(CCN1C(=O)/C(=C/c2ccccc2F)SC1=S)NCCCn1ccnc1`, the IC50 (Beta-lactamase [3]) was > 59.6 µM (inactive), the IC50 (Beta-lactamase [4]) was > 59.6 µM (inactive) and the IC50 (Beta-lactamase [5]) was > 19.9 µM (inactive).
For `Cc1cc(-c2ccccc2)c2c3c(c(-c4ccccc4)n2n1)c(=O)n(C)c(=O)n3C`, the EC50 [6] was > 99 µM (inactive) and the EC50 [7] was > 99 µM (inactive).
For `Cc1cccc(-n2ncc3c(N4CCOCC4)ncnc32)c1`, the AC50 [8] was > 52 µM (inactive), the AC50 [9] was 3.94 µM (active) and the AC50 [10] was > 52 µM (inactive). The AC50 [11] was 3.92 µM (active), the AC50 (HEK293 [12]) was 1.36 µM (active) and the CC50 [13] was 19.1 µM (active).
For `C[C@@H]1CCCCO[C@@H](CN(C)C(=O)Nc2ccc(C(F)(F)F)cc2)[C@@H](C)CN([C@H](C)CO)C(=O)c2cc(NS(=O)(=O)c3ccc(Cl)cc3)ccc2O1`, the AC50 [14] was 3.05 µM (active).
With `C[C@@H]1CN([C@H](C)CO)C(=O)c2cccc(NC(=O)CCCCCC(=O)Nc3ccccc3N)c2O[C@H]1CN(C)CC1CC1` the AC50 [14] was 3.12 µM (active).
For `C[C@@H]1CN([C@@H](C)CO)C(=O)Cc2cc(NC(=O)Nc3ccc(C(F)(F)F)cc3)ccc2O[C@@H]1CN(C)Cc1ccc2c(c1)OCO2`, the AC50 [14] was 2.01 µM (active).
In the case of `C[C@H](CO)N1C[C@H](C)[C@H](CN(C)Cc2ccc(C(F)(F)F)cc2)Oc2ccc(NC(=O)Nc3ccc(F)cc3)cc2CC1=O`, the AC50 [14] is reported as 2.19 µM (active).
With `COC(=O)c1c(/N=C/N(C)C)sc2c1CCN(c1ncc(C(F)(F)F)cc1Cl)C2` the EC50 [6] was > 99 µM (inactive) and the EC50 [7] was > 99 µM (inactive).
For `CN1CCN(c2ncnc3ccc(Br)cc23)CC1`, the EC50 (HEK293 [15]) was 17.8 µM (active), the IC50 (HEK293 [16]) was > 20 µM (inactive) and the IC50 (HEK293 [17]) was 6.08 µM (active). For the same molecule, the IC50 (HEK293 [18]) was 4.83 µM (active).
